From patent US4591582A, “Organophosphorus compounds useful as anticonvulsant agents” (priority 1984, dated 1986)
Where two headings read alike, the source gives them in different places.

Experiments:
[1] = tested on: seizures induced by maximal electroshock (MES); settings: data taken from Kupferberg, 1980; cited from earlier work
[2] = tested on: seizures induced by subcutaneous picrotoxin (scPic); settings: data taken from Kupferberg, 1980, cited from earlier work; for ED50, scPic: picrotoxin 3.2 mg/kg s.c.
[3] = tested on: convulsions induced in mice by MES and scMet; settings: reported, Kupferberg, 1980; cited from earlier work
[4] = tested on: seizures induced by subcutaneous pentylenetetrazol (Metrazol) (scMet); settings: data taken from Kupferberg, 1980, cited from earlier work; for ED50, scMet: pentylenetetrazol 85 mg/kg s.c.
[5] = tested on: seizures induced by subcutaneous bicuculline (scBic); settings: data taken from Kupferberg, 1980, cited from earlier work; for ED50, scBic: bicuculline 2.7 mg/kg s.c.
[6] = tested on: seizures induced by subcutaneous bicuculline (scBic); test: inhibition of seizures induced by subcutaneous bicuculline (scBic), 2.7 mg/kg; type: in vivo, male Carworth Farms No. 1 mice
Protocol: (§1) All tests were performed on male Carworth Farms No. 1 mice by the Antiepileptic Drug Development Program administered by the Section of Epilepsy, National Institutes of Health, Bethesda, MD 20014, according to previously described procedures [DHEW Publication No. (NIH) 76-1093 (1976), Bethesda, MD]. These involved the inhibition of seizures induced by maximal electroshock (MES) and by three subcutaneously administered chemicals: 85 mg/kg pentylenetetrazol (Metrazol) (scMet), 2.7 mg/kg bicuculline (scBic) and 3.2 mg/kg picrotoxin (scPic). Test compounds were solubilized in polyethylene glycol 400 and administered intraperitoneally in a volume of 0.01 ml/g. The time of peak anticonvulsant activity were determined for II (200 mg/kg), III (300 mg/kg) and IV (300 mg/kg) against MES and for I (200 mg/kg) against scMet with dosing of I-III at 0.5, […]. using four mice per dose. Neurotoxicity was evaluated by placing an animal on a 1 in. diameter knurled plastic rod and rotating at 6 rpm. Failure of the animal to remain on the rod for 1 min. signified neurological toxicity. This testing was performed using groups of eight mice on a time course basis by dosing with I (900 mg/kg), II (400 mg/kg) and III (360 mg/kg) after 0.5, 1, 2 and 4 hrs. and with IV (580 mg/kg) after an additional 6 and 24 hrs. The neurotoxicity was also similarly quantified, with observations taken 30 mins. after dosing, as follows (compound/mg/kg): I, 400, 500, 600, 700, 800, 900; II, 350, 400, 430, 470; III, 230, 260, 300, 360, 420; IV, 150, 300, 400, 500, 580, 600. […] I=dimethyl ester of 3-aminophenylphosphonic acid; II=diethyl ester of 3-aminophenylphosphonic acid; III=diisopropyl ester of 3-aminophenylphosphonic acid; and IV=diethyl-2-acetamidophenylphosphate.

[7] = tested on: seizures induced by subcutaneous pentylenetetrazol (Metrazol) (scMet); test: inhibition of seizures induced by subcutaneous pentylenetetrazol (Metrazol) (scMet), 85 mg/kg; type: in vivo, male Carworth Farms No. 1 mice; settings: for P.I. (protective index, TD50/ED50), scMet / ED50, scMet: i.p.
Protocol: as §1, with “600. Quantification of anticonvulsant activity was similarly determined as follows (compound, test, mg/kg), I, MES, 100, 140, 150, 160, 170, 190, 250; I, scMet, 140, 200, 240, 300, 400, 500; I, scBic, 350, 400, 450, 475, 500; I, scPic, 150, 250, 330, 440, 500; II, MES, 130, 170, 200, 230; II, scMet, 150, 180, 230, 300; III, MES, 220, 240, 280, 290, 300; III, scMet, 300, 400, 500, 600; IV, MES, 150, 220, 300, 400, 500, 600; IV, scMet, 300, 410, 470, 600, 760.” for “600.”

[8] = tested on: seizures induced by subcutaneous picrotoxin (scPic); type: in vivo, male Carworth Farms No. 1 mice
Protocol: as §1

[9] = Rotorod neurotoxicity test (failure to remain on rotating rod, 6 rpm, for 1 min); type: in vivo, male Carworth Farms No. 1 mice; settings: mouse, in vivo, ip; mice, i.p., 30 mins. after dosing
Protocol: as §1, with “600. Quantification of anticonvulsant activity was similarly determined as follows (compound, test, mg/kg), I, MES, 100, 140, 150, 160, 170, 190, 250; I, scMet, 140, 200, 240, 300, 400, 500; I, scBic, 350, 400, 450, 475, 500; I, scPic, 150, 250, 330, 440, 500; II, MES, 130, 170, 200, 230; II, scMet, 150, 180, 230, 300; III, MES, 220, 240, 280, 290, 300; III, scMet, 300, 400, 500, 600; IV, MES, 150, 220, 300, 400, 500, 600; IV, scMet, 300, 410, 470, 600, 760.” for “600.”

[10] = tested on: neurotoxicity (Rotorod); test: as above; type: in vivo, male Carworth Farms No. 1 mice
Protocol: as §1, with “600. Quantification of anticonvulsant activity was similarly determined as follows (compound, test, mg/kg), I, MES, 100, 140, 150, 160, 170, 190, 250; I, scMet, 140, 200, 240, 300, 400, 500; I, scBic, 350, 400, 450, 475, 500; I, scPic, 150, 250, 330, 440, 500; II, MES, 130, 170, 200, 230; II, scMet, 150, 180, 230, 300; III, MES, 220, 240, 280, 290, 300; III, scMet, 300, 400, 500, 600; IV, MES, 150, 220, 300, 400, 500, 600; IV, scMet, 300, 410, 470, 600, 760.” for “600.”

[11] = tested on: seizures induced by maximal electroshock (MES); test: inhibition of seizures induced by maximal electroshock (MES) in mice, intraperitoneal; type: in vivo, male Carworth Farms No. 1 mice; settings: for ED50, MES / P.I. (protective index, TD50/ED50), MES: i.p.; for factor of greater protection against MES than VPA: relative to VPA (valproic acid)
Protocol: as §1, with “600. Quantification of anticonvulsant activity was similarly determined as follows (compound, test, mg/kg), I, MES, 100, 140, 150, 160, 170, 190, 250; I, scMet, 140, 200, 240, 300, 400, 500; I, scBic, 350, 400, 450, 475, 500; I, scPic, 150, 250, 330, 440, 500; II, MES, 130, 170, 200, 230; II, scMet, 150, 180, 230, 300; III, MES, 220, 240, 280, 290, 300; III, scMet, 300, 400, 500, 600; IV, MES, 150, 220, 300, 400, 500, 600; IV, scMet, 300, 410, 470, 600, 760.” for “600.”

[12] = tested on: neurotoxicity (Rotorod); settings: data taken from Kupferberg, 1980; cited from earlier work
[13] = tested on: convulsions induced in mice by MES and scMet; test: time course of protection against convulsions induced by MES and scMet (FIG. 1); type: in vivo; settings: i.p., 300 mg/kg
Protocol: FIG. 1 is a graphical representation showing the time course of percent protection by intraperitoneally administered I-IV against seizures induced by maximal electroshock (MES) or subcutaneous pentylenetetrazol (Metrazol) (scMet). Key: ( ) I (dimethyl ester of 3-aminophenylphosphonic acid) 400 mg/kg, scMet: ( ) II (diethyl ester of 3-aminophenylphosphonic acid) 200 mg/kg, MES; ( ) III (diisopropyl ester of 3-aminophenylphosphonic acid) 300 mg/kg, MES: ( ) IV (diethyl-2-acetamidophenylphosphate) 300 mg/kg, MES.
All tests were performed on male Carworth Farms No. 1 mice by the Antiepileptic Drug Development Program administered by the Section of Epilepsy, National Institutes of Health, Bethesda, MD 20014, according to previously described procedures [DHEW Publication No. (NIH) 76-1093 (1976), Bethesda, MD]. […] The time of peak anticonvulsant activity were determined for II (200 mg/kg), III (300 mg/kg) and IV (300 mg/kg) against MES and for I (200 mg/kg) against scMet with dosing of I-III at 0.5, […]. using four mice per dose. Neurotoxicity was evaluated by placing an animal on a 1 in. diameter knurled plastic rod and rotating at 6 rpm. […]

[14] = mice, pentylenetetrazol 85 mg/kg s.c.

Row | SMILES | ED50, scPic [2] [mg/kg] | time to peak effect [3] [min] | ED50, scMet [4] [mg/kg] | ED50, scBic [5] [mg/kg] | P.I. (protective index, TD50/ED50), scMet ([7]; mice) | TD50 at 0.5 h [9] [mg/kg] | ED50, MES ([11]; mice) [mg/kg] | P.I. (protective index, TD50/ED50), MES ([11]; mice) | further results
1 | CCCC(CCC)C(=O)O [VPA, Valproic Acid] | 387.21 | 16 | 148.59 | 359.95 | – | – | – | – | ED50, MES [1]: 217.66 mg/kg
2 | COP(=O)(OC)c1cccc(N)c1 [I, dimethyl ester of 3-aminophenylphosphonic acid] | – | – | – | – | 2.83 | 680 | 166.46 | 4.08 | P.I. (protective index, TD50/ED50), scBic ([6]; mice, i.p., TD50/ED50): 1.56; ED50, scBic ([6]; mice, i.p., bicuculline 2.7 mg/kg s.c.): 435.94 mg/kg; effectiveness against scBic relative to VPA ([6]; relative to VPA): 1.3 times; times better than valproic acid against chemically induced seizures ([6]; second of two chemically induced seizures (scBic)): 1.3 times; ED50, scMet [7, 14]: 239.93 mg/kg; result in scMet test compared with VPA ([7]; relative to VPA): nearly identical results as VPA; activity profile in all three testing procedures compared with trimethadione ([7]; scMet, scBic, scPic): very similar to trimethadione; times better than valproic acid against chemically induced seizures ([8]; first of two chemically induced seizures (scPic)): 1.8 times; P.I. (protective index, TD50/ED50), scPic ([8]; mice, i.p., TD50/ED50): 2.02; ED50, scPic ([8]; mouse, in vivo, ip): 336.20 mg/kg; effectiveness against scPic relative to VPA ([8]; relative to VPA): 1.8 times; neurotoxicity dose level ([10]; compared with valproic acid): superior neurotoxicity dose level; factor of greater protection against MES than VPA [11]: 2.6 times; factor of greater protection against MES than VPA ([11]; listed as dimethyl ester of 3-aminophenylphosphonic acid): about 2.5 times
3 | CCOP(=O)(OCC)c1cccc(N)c1 [II, diethyl ester of 3-aminophenylphosphonic acid] | – | – | – | – | 1.86 | 389 | 175.43 | 2.22 | ED50, scMet [7, 14]: 208.73 mg/kg; factor of greater protection against MES than VPA [11]: 1.4 times
4 | CN1C(=O)OC(C)(C)C1=O [Trimethadione] | 408.09 | 60 | 300.45 | 532.12 | – | – | – | – | TD50, Rotorod neurotoxicity test [12]: 819.07 mg/kg; P.I. (protective index, TD50/ED50), scPic [2]: 2.01; P.I. (protective index, TD50/ED50), scMet [4]: 2.73; P.I. (protective index, TD50/ED50), scBic [5]: 1.54
5 | CC(C)OP(=O)(OC(C)C)c1cccc(N)c1 [III, diisopropyl ester of 3-aminophenylphosphonic acid] | – | – | – | – | – | 311 | 266.49 | 1.17 | –
6 | CCC1(c2ccccc2)C(=O)NC(=O)NC1=O [Phenobarbital] | 27.51 | 60 | 13.17 | 37.72 | – | – | – | – | –
7 | CCC1(C)CC(=O)NC1=O (stereo not drawn) [Ethosuximide] | 242.69 | 30 | – | 459.01 | – | – | – | – | –
8 | CCOP(=O)(OCC)Oc1ccccc1NC(C)=O [IV, diethyl-2-acetamidophenylphosphate] | – | – | – | – | 1.03 | 458 | – | 1.31 | ED50 ([7]; Mus musculus, ip, mice, pentylenetetrazol 85 mg/kg s.c.): 444 mg/kg; time course of neurotoxicity ([10]; mice, i.p., IV 580 mg/kg, up to 24 hours): high and prolonged toxicity beginning after two hours and persisting at this level from 6 to 24 hours; latent protective effect in time course [13]: slight degree of latent protective effect; ED50 ([11]; Mus musculus, ip, mice): 348 mg/kg
